# Data reported in patent US6525001B1, “Substituted pyrimidine and pyridine herbicides” (Mid-American Commercialization Corporation, priority 1997, dated 2003).
# How the values were obtained:
# Assay type in all cases: in vivo
# [1] = test system: sandbur (Cenchrus echinatus); experiment: Test E pre-/postemergence/post directed; parameters: key: 0 is no injury; 100 is complete control
# Summary of the method: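 Injury scored visually on a 0–100 scale (100 = complete control) 13 to 21 days after treatment. Test chemicals, formulated with surfactant in non-phytotoxic solvent, were applied to soil within one day of planting, to plants at two to four leaves (three to twenty cm), or as directed spray at plant base.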
# [2] = test system: galium 2 (Galium aparine); experiment: Test D; conditions: POSTEMERGENCE
# Protocol: (§1) Compounds evaluated in this test were formulated in a non-phytotoxic solvent mixture which included a surfactant and applied to plants that were in the 1- to 4-leaf stage (postemergence application). A mixture of sandy loam soil and greenhouse potting mix in a 60:40 ratio was used for the postemergence test.
# (§2) Plantings of these crops and weed species were adjusted to produce plants of appropriate size for the postemergence test. All plant species were grown using normal greenhouse practices. Crop and weed species include alfalfa (Medicago sativa), annual bluegrass (Poa annua), blackgrass (Alopecurus myosuroides), black nightshade (Solanum nigra), chickweed (Stellaria media), common poppy (Papaver rhoeas), deadnettle (Lamium amplexicaule), downy brome (Bromus tectorum), field violet (Viola arvensis), galium 2 (Galium aparine), green foxtail (Setaria viridis), Italian ryegrass (Lolium multiflorum), jointed goatgrass (Aegilops cylindrica), kochia (Kochia scoparia), lambsquarters (Chenopodium album), lentil (Lens culinaris), littleseed canarygrass (Phalaris minor), pea (Pisum sativum), potato (Solanum tuberosum), rape (Brassica napus), redroot pigweed (Amaranthus retroflexus), Russian thistle (Salsola kali), scentless chamomile (Matricaria inodora), sorghum (Sorghum vulgare), spring barley (Hordeum vulgare), sugar beet (Beta vulgaris), sunflower (Helianthus annuus), ivyleaf speedwell (Veronica hederaefolia), spring wheat (Triticum aestivum), winter wheat (Triticum aestivum), wild buckwheat (Polygonum convolvulus), wild mustard (Sinapis arvensis), wild oat (Avena fatua), windgrass (Apera spica-venti) and winter barley (Hordeum vulgare).
# (§3) Treated plants and untreated controls were maintained in a greenhouse for approximately 21 to 28 days, after which all treated plants were compared to untreated controls and visually evaluated. Plant response ratings, summarized in Table D, are based upon a 0 to 100 scale where 0 is no effect and 100 is complete control. A dash response (−) means no test result.
# [3] = test system: kochia (Kochia scoparia); experiment: Test D; conditions: POSTEMERGENCE
# Protocol: as §1, §2, §3
# [4] = test system: redroot pigweed (Amaranthus retroflexus); experiment: Test D; conditions: POSTEMERGENCE
# Protocol: as §1, §2, §3
# [5] = test system: wild buckwheat (Polygonum convolvulus); experiment: Test D; conditions: POSTEMERGENCE
# Protocol: as §1, §2, §3
# [6] = test system: blackgrass (Alopecurus myosuroides); experiment: Test D; conditions: PREEMERGENCE
# [7] = test system: deadnettle (Lamium amplexicaule); experiment: Test D; parameters: key: 0 is no effect; conditions: PREEMERGENCE
# [8] = test system: downy brome (Bromus tectorum); experiment: Test D; conditions: PREEMERGENCE, Rate 250 g/ha
# [9] = test system: green foxtail (Setaria viridis); experiment: Test D; parameters: key: 0 is no effect; 100 is complete control; conditions: PREEMERGENCE
# [10] = test system: littleseed canarygrass (Phalaris minor); experiment: Test D; conditions: PREEMERGENCE
# [11] = test system: rape (Brassica napus); experiment: Test D; parameters: key: 0 is no effect; 100 is complete control; conditions: PREEMERGENCE
# [12] = test system: redroot pigweed (Amaranthus retroflexus); experiment: Test D; parameters: key: 0 is no effect; 100 is complete control; conditions: PREEMERGENCE
# [13] = test system: sunflower (Helianthus annuus); experiment: Test D; conditions: PREEMERGENCE
# [14] = test system: winter wheat (Triticum aestivum); experiment: Test D; parameters: key: 0 is no effect; conditions: PREEMERGENCE
# [15] = test system: wild mustard (Sinapis arvensis); experiment: Test D; conditions: PREEMERGENCE
# [16] = test system: wild oat (Avena fatua); experiment: Test D; parameters: key: 0 is no effect; 100 is complete control; conditions: PREEMERGENCE
compound,measurement,setting,value
Cc1cnc(-c2ccc(C(F)(F)F)cc2)nc1Cc1cccc(OC(F)(F)F)c1 [Compound 15],"Plant response rating, Sandbur","[1]; POSTEMERGENCE, Rate 125 g/ha",0
same,"Plant response rating, Sandbur","[1]; POSTEMERGENCE, Rate 250 g/ha",0
CCc1cnc(-c2ccc(C(F)(F)F)cc2)nc1Cc1cccc(C(F)(F)F)c1 [Compound 22],"Plant response rating, Galium",[2]; Rate 62 g/ha,70
same,"Plant response rating, Galium",[2]; Rate 125 g/ha,90
same,"Plant response rating, Kochia",[3]; Rate 62 g/ha,50
same,"Plant response rating, Kochia",[3]; Rate 125 g/ha,70
same,"Plant response rating, Redroot pigweed",[4]; Rate 62 g/ha,50
same,"Plant response rating, Redroot pigweed",[4]; Rate 125 g/ha,70
same,"Plant response rating, Wild buckwheat",[5]; Rate 62 g/ha,20
same,"Plant response rating, Wild buckwheat",[5]; Rate 125 g/ha,20
same,"Plant response rating, Blackgrass",[6]; Rate 62 g/ha,30
same,"Plant response rating, Blackgrass",[6]; Rate 125 g/ha,60
same,"Plant response rating, Blackgrass",[6]; Rate 250 g/ha,40
same,"Plant response rating, Deadnettle",[7]; Rate 62 g/ha,0
same,"Plant response rating, Deadnettle",[7]; Rate 125 g/ha,70
same,"Plant response rating, Deadnettle",[7]; Rate 250 g/ha,10
same,"Plant response rating, Downy brome",[8],10
same,"Plant response rating, Green foxtail",[9]; Rate 62 g/ha,10
same,"Plant response rating, Green foxtail",[9]; Rate 125 g/ha,100
same,"Plant response rating, Green foxtail",[9]; Rate 250 g/ha,100
same,"Plant response rating, LS canarygrass",[10]; Rate 62 g/ha,20
same,"Plant response rating, LS canarygrass",[10]; Rate 125 g/ha,60
same,"Plant response rating, LS canarygrass",[10]; Rate 250 g/ha,50
same,"Plant response rating, Rape",[11]; Rate 62 g/ha,20
same,"Plant response rating, Rape",[11]; Rate 125 g/ha,100
same,"Plant response rating, Rape",[11]; Rate 250 g/ha,50
same,"Plant response rating, Redroot pigweed",[12]; Rate 62 g/ha,60
same,"Plant response rating, Redroot pigweed",[12]; Rate 125 g/ha,100
same,"Plant response rating, Redroot pigweed",[12]; Rate 250 g/ha,70
same,"Plant response rating, Sunflower",[13]; Rate 62 g/ha,20
same,"Plant response rating, Sunflower",[13]; Rate 125 g/ha,10
same,"Plant response rating, Sunflower",[13]; Rate 250 g/ha,30
same,"Plant response rating, Wheat (winter)",[14]; Rate 62 g/ha,0
same,"Plant response rating, Wheat (winter)",[14]; Rate 125 g/ha,10
same,"Plant response rating, Wheat (winter)",[14]; Rate 250 g/ha,5
same,"Plant response rating, Wild mustard",[15]; Rate 62 g/ha,30
same,"Plant response rating, Wild mustard",[15]; Rate 125 g/ha,60
same,"Plant response rating, Wild mustard",[15]; Rate 250 g/ha,30
same,"Plant response rating, Wild oat",[16]; Rate 62 g/ha,0
same,"Plant response rating, Wild oat",[16]; Rate 125 g/ha,30
same,"Plant response rating, Wild oat",[16]; Rate 250 g/ha,30
Cc1cnc(-n2ccc(C(F)(F)F)n2)nc1Cc1cccc(OC(F)(F)F)c1 [Compound 42],"Plant response rating, Sandbur","[1]; PREEMERGENCE, Rate 32 g/ha",0
Cc1cnc(-n2cnc(C(F)(F)F)c2)nc1Cc1cccc(C(F)(F)F)c1 [Compound 44],"Plant response rating, Sandbur","[1]; POSTEMERGENCE, Rate 125 g/ha",0
same,"Plant response rating, Sandbur","[1]; POSTEMERGENCE, Rate 250 g/ha",0
same,"Plant response rating, Sandbur","[1]; PREEMERGENCE, Rate 32 g/ha",0
